According to ChEMBL document CHEMBL2321725, “Optimization of non-ATP competitive CDK/cyclin groove inhibitors through REPLACE-mediated fragment assembly” (J Med Chem, 2013):
Peptide text beside a SMILES is read from it. * marks the point of attachment. X14 = Cc1nc(C(=O)*)nn1-c1cc(Cl)cc(Cl)c1; X17 = Cc1cc(C(=O)*)nn1-c1cc(Cl)cc(Cl)c1; X18 = O=C(c1ccc(-c2cc(Cl)cc(Cl)c2)o1)*; X9 = O=C(c1ccn(-c2cc(Cl)cc(Cl)c2)c1)*; X13 = O=C(c1c[nH]c(-c2cccc(F)c2)n1)*; X11 = Cc1cc(C(=O)*)nn1-c1ccc(Cl)cc1; X12 = Cc1nc(C(=O)*)nn1-c1ccc(Cl)cc1; X16 = Cc1nc(C(=O)*)nn1-c1cccc(Cl)c1; X15 = O=C(c1ccn(-c2ccc(Cl)cc2)c1)*; X2 = Cc1cc(C(=O)*)nn1-c1cccc(Cl)c1; X3 = COc1ccc(-n2nc(C(=O)*)cc2C)cc1; X6 = COc1cccc(-n2nc(C(=O)*)cc2C)c1; X1 = Cc1cccc(-n2nc(C(=O)*)nc2C)c1; X4 = O=C(c1ccc(-c2cccc(Cl)c2)o1)*; X5 = O=C(c1csc(-c2ccc(Cl)cc2)n1)*; X7 = Cc1cc(C(=O)*)nn1-c1cccc(F)c1; X10 = Cc1cc(C(=O)*)nn1-c1ccccc1; X8 = Cn1cc(C(=O)*)nc1-c1ccccc1

Columns and labels:
[1] = target: Cyclin-dependent kinase 2/cyclin A (Homo sapiens, UniProt P24941); assay: Inhibition of human recombinant CDK2/Cyclin A2 using fluoresceinyl-Ahx-Pro-Val-Lys-Arg-Arg-Leu-Phe-Gly tracer peptide as substrate after 45 mins by fluorescent polarization binding assay; format: protein-complex assay
[2] = target: Cyclin-dependent kinase 4/cyclin D1 (Homo sapiens, UniProt P11802); assay: Inhibition of human recombinant CDK4/Cyclin D1 using fluoresceinyl-Ahx-Pro-Val-Lys-Arg-Arg-Leu-(3ClPhe)-Gly tracer peptide as substrate after 45 mins by fluorescent polarization binding assay
Sequence of Cyclin-dependent kinase 4/cyclin D1 (P11802 whole entry): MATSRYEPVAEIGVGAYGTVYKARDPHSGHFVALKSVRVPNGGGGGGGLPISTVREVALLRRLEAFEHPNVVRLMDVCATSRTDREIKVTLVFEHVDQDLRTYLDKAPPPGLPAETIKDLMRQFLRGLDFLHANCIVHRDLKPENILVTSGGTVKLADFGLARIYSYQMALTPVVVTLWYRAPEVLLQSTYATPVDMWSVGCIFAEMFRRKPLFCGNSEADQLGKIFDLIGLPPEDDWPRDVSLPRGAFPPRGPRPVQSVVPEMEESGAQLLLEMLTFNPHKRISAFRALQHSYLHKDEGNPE
Sequence of Cyclin-dependent kinase 4/cyclin D1 (P24385 whole entry, further chain): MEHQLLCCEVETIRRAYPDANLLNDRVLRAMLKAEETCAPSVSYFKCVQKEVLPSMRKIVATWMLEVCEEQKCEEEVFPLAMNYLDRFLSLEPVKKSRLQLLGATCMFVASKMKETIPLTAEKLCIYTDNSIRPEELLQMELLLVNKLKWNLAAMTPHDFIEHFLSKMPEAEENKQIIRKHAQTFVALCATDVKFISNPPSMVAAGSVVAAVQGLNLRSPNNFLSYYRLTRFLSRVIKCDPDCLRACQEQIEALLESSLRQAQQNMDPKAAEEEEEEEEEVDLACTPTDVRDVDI

`Cc1nc(C(=O)N[C@@H](CCCNC(=N)N)C(=O)N[C@@H](CC(C)C)C(=O)NCc2cccc(Oc3ccccc3)c2)nn1-c1ccc(Cl)cc1` was tested, and the IC50 [1] was 106 µM and the IC50 [2] was over 200 µM.

`Cc1nc(C(=O)N[C@@H](CCCNC(=N)N)C(=O)N[C@@H](CC(C)C)C(=O)NCc2cc(Oc3cccc(F)c3)ccn2)nn1-c1ccc(Cl)cc1` showed an IC50 [1] of 53.2 µM and an IC50 [2] of over 200 µM.

For `Cc1nc(C(=O)N[C@@H](CCCNC(=N)N)C(=O)N[C@@H](CC(C)C)C(=O)NCc2cc(Oc3ccc(F)cc3)ccn2)nn1-c1ccc(Cl)cc1`, the IC50 [1] was 18.1 µM and the IC50 [2] was over 200 µM.

Work on `Cc1nc(C(=O)N[C@@H](CCCNC(=N)N)C(=O)N[C@@H](CC(C)C)C(=O)NCc2cc(Oc3ccc(Cl)cc3)ccn2)nn1-c1ccc(Cl)cc1` yielded an IC50 [1] of 54.4 µM and an IC50 [2] of over 500 µM.

Molecule `Cc1ccccc1Oc1ccnc(CNC(=O)[C@H](CC(C)C)NC(=O)[C@H](CCCNC(=N)N)NC(=O)c2nc(C)n(-c3ccc(Cl)cc3)n2)c1` has an IC50 [1] of 60 µM and an IC50 [2] of over 500 µM.

In the case of `Cc1nc(C(=O)N[C@@H](CCCNC(=N)N)C(=O)N[C@@H](CC(C)C)C(=O)NCc2cc(Oc3cccc(Cl)c3)ccn2)nn1-c1cc(Cl)cc(Cl)c1`, the IC50 [1] is reported as 61 µM and the IC50 [2] is reported as 120 µM.

With `Cc1nc(C(=O)N[C@@H](CCCNC(=N)N)C(=O)N[C@@H](CC(C)C)C(=O)NCc2cccc(Oc3cc(Cl)cc(Cl)c3)c2)nn1-c1cc(Cl)cc(Cl)c1` the IC50 [1] was over 180 µM and the IC50 [2] was 120 µM.

`Cc1nc(C(=O)N[C@@H](CCCNC(=N)N)C(=O)N[C@@H](CC(C)C)C(=O)NCc2cc(Oc3ccc(F)c(F)c3)ccn2)nn1-c1cc(Cl)cc(Cl)c1` showed an IC50 [1] of over 180 µM and an IC50 [2] of over 180 µM.

`CC[C@H](C)[C@H](NC(=O)[C@H](CC(C)C)NC(=O)[C@H](CCCNC(=N)N)NC(=O)c1nc(C)n(-c2cccc(C)c2)n1)C(=O)N[C@@H](Cc1ccccc1)C(N)=O` (X1-RLIF-NH2) gave an IC50 [1] of 13.8 µM and an IC50 [2] of 51.1 µM.

`CC[C@H](C)[C@H](NC(=O)[C@H](CC(C)C)NC(=O)[C@H](CCCNC(=N)N)NC(=O)c1cc(C)n(-c2cccc(Cl)c2)n1)C(=O)N[C@@H](Cc1ccccc1)C(N)=O` (X2-RLIF-NH2) showed an IC50 [1] of 11.9 µM and an IC50 [2] of 70.3 µM.

For `CC[C@H](C)[C@H](NC(=O)[C@H](CC(C)C)NC(=O)[C@H](CCCNC(=N)N)NC(=O)c1cc(C)n(-c2ccc(OC)cc2)n1)C(=O)N[C@@H](Cc1ccccc1)C(N)=O` (X3-RLIF-NH2), the IC50 [1] was over 180 µM and the IC50 [2] was over 180 µM.

`CC[C@H](C)[C@H](NC(=O)[C@H](CC(C)C)NC(=O)[C@H](CCCNC(=N)N)NC(=O)c1ccc(-c2cccc(Cl)c2)o1)C(=O)N[C@@H](Cc1ccccc1)C(N)=O` (X4-RLIF-NH2) gave an IC50 [1] of over 180 µM and an IC50 [2] of over 180 µM.

`CC[C@H](C)[C@H](NC(=O)[C@H](CC(C)C)NC(=O)[C@H](CCCNC(=N)N)NC(=O)c1csc(-c2ccc(Cl)cc2)n1)C(=O)N[C@@H](Cc1ccccc1)C(N)=O` (X5-RLIF-NH2) gave an IC50 [1] of over 180 µM and an IC50 [2] of over 180 µM.

Molecule `CC[C@H](C)[C@H](NC(=O)[C@H](CC(C)C)NC(=O)[C@H](CCCNC(=N)N)NC(=O)c1cc(C)n(-c2cccc(OC)c2)n1)C(=O)N[C@@H](Cc1ccccc1)C(N)=O` (X6-RLIF-NH2) has an IC50 [1] of 64.1 µM and an IC50 [2] of over 100 µM.

`CC[C@H](C)[C@H](NC(=O)[C@H](CC(C)C)NC(=O)[C@H](CCCNC(=N)N)NC(=O)c1cc(C)n(-c2cccc(F)c2)n1)C(=O)N[C@@H](Cc1ccccc1)C(N)=O` (X7-RLIF-NH2) showed an IC50 [1] of 29.6 µM and an IC50 [2] of 65.9 µM.

`CC[C@H](C)[C@H](NC(=O)[C@H](CC(C)C)NC(=O)[C@H](CCCNC(=N)N)NC(=O)c1cn(C)c(-c2ccccc2)n1)C(=O)N[C@@H](Cc1ccccc1)C(N)=O` (X8-RLIF-NH2) showed an IC50 [1] of over 180 µM and an IC50 [2] of over 180 µM.

In the case of `CC[C@H](C)[C@H](NC(=O)[C@H](CC(C)C)NC(=O)[C@H](CCCNC(=N)N)NC(=O)c1ccn(-c2cc(Cl)cc(Cl)c2)c1)C(=O)N[C@@H](Cc1ccccc1)C(N)=O` (X9-RLIF-NH2), the IC50 [1] is reported as over 180 µM and the IC50 [2] is reported as over 180 µM.

Molecule `CC[C@H](C)[C@H](NC(=O)[C@H](CC(C)C)NC(=O)[C@H](CCCNC(=N)N)NC(=O)c1cc(C)n(-c2ccccc2)n1)C(=O)N[C@@H](Cc1ccccc1)C(N)=O` (X10-RLIF-NH2) has an IC50 [1] of 40.3 µM and an IC50 [2] of 54.2 µM.

With `CC[C@H](C)[C@H](NC(=O)[C@H](CC(C)C)NC(=O)[C@H](CCCNC(=N)N)NC(=O)c1cc(C)n(-c2ccc(Cl)cc2)n1)C(=O)N[C@@H](Cc1ccccc1)C(N)=O` (X11-RLIF-NH2) the IC50 [1] was 33.7 µM and the IC50 [2] was 54.7 µM.

In the case of `CC[C@H](C)[C@H](NC(=O)[C@H](CC(C)C)NC(=O)[C@H](CCCNC(=N)N)NC(=O)c1nc(C)n(-c2ccc(Cl)cc2)n1)C(=O)N[C@@H](Cc1ccccc1)C(N)=O` (X12-RLIF-NH2), the IC50 [1] is reported as 11.5 µM and the IC50 [2] is reported as 12 µM.

Molecule `CC[C@H](C)[C@H](NC(=O)[C@H](CC(C)C)NC(=O)[C@H](CCCNC(=N)N)NC(=O)c1c[nH]c(-c2cccc(F)c2)n1)C(=O)N[C@@H](Cc1ccccc1)C(N)=O` (X13-RLIF-NH2) has an IC50 [1] of 34.3 µM and an IC50 [2] of 68.5 µM.

`CC[C@H](C)[C@H](NC(=O)[C@H](CC(C)C)NC(=O)[C@H](CCCNC(=N)N)NC(=O)c1nc(C)n(-c2cc(Cl)cc(Cl)c2)n1)C(=O)N[C@@H](Cc1ccccc1)C(N)=O` (X14-RLIF-NH2) showed an IC50 [1] of 4 µM and an IC50 [2] of 27.3 µM.

`CC[C@H](C)[C@H](NC(=O)[C@H](CC(C)C)NC(=O)[C@H](CCCNC(=N)N)NC(=O)c1ccn(-c2ccc(Cl)cc2)c1)C(=O)N[C@@H](Cc1ccccc1)C(N)=O` (X15-RLIF-NH2) gave an IC50 [1] of over 180 µM and an IC50 [2] of over 180 µM.

In the case of `CC[C@H](C)[C@H](NC(=O)[C@H](CC(C)C)NC(=O)[C@H](CCCNC(=N)N)NC(=O)c1nc(C)n(-c2cccc(Cl)c2)n1)C(=O)N[C@@H](Cc1ccccc1)C(N)=O` (X16-RLIF-NH2), the IC50 [1] is reported as 5.7 µM and the IC50 [2] is reported as 26.5 µM.

`CC[C@H](C)[C@H](NC(=O)[C@H](CC(C)C)NC(=O)[C@H](CCCNC(=N)N)NC(=O)c1cc(C)n(-c2cc(Cl)cc(Cl)c2)n1)C(=O)N[C@@H](Cc1ccccc1)C(N)=O` (X17-RLIF-NH2) showed an IC50 [1] of 21.8 µM and an IC50 [2] of over 100 µM.

For `CC[C@H](C)[C@H](NC(=O)[C@H](CC(C)C)NC(=O)[C@H](CCCNC(=N)N)NC(=O)c1ccc(-c2cc(Cl)cc(Cl)c2)o1)C(=O)N[C@@H](Cc1ccccc1)C(N)=O` (X18-RLIF-NH2), the IC50 [1] was over 180 µM and the IC50 [2] was over 180 µM.
